Assay: cn = amount concentration of the nth substance listed, in mol/dm3
Conditions: 298.15 K, 101.3 kPa, Liquid, Taylor dispersion method

Compound NNC(=O)c1ccncc1 [isonicotinic acid hydrazide] + O has a binary diffusion coefficient (c1 = 0) of 8.26e-10 m2/s, a binary diffusion coefficient (c1 = 0.005) of 8.25e-10 m2/s and a binary diffusion coefficient (c1 = 0.01) of 8.23e-10 m2/s. For the same compound, the binary diffusion coefficient (c1 = 0.02) was 8.21e-10 m2/s.
